Some test systems named below: NCI-H23; UACC-257; ACHN; SR; LOX IMVI; OVCAR-5; NCI-H460; Malme-3M; UACC-62; SK-OV-3; RXF 393; HCT-15; A498; HOP-62; KM12; SNB-75; TK-10; A549.
Holding throughout (assay): NCI-60 cell line screen, 48 h

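Grown in 96-well plates, cells were treated for 48 hours with each compound at five concentrations. Insufficient inhibition: endpoint recorded as highest concentration tested. GI50 is the concentration that inhibits growth by half.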 Active and inactive are the calls of the source. Rule as the data show it: active = GI50 up to about 1.1 µM and inactive = higher.

Turning to `CCCCCCCCC(C)CCCCCCCCC(=O)OCC(COP(=O)([O-])OCC[N+](C)(C)C)OC(=O)CCCCCCCCC(C)CCCCCCCC` (configuration not stated), the GI50 in the test on NCI-H23, with UACC-257, in the test with ACHN, with SR, in the test on LOX IMVI and with OVCAR-5 was > 100 µM (inactive) throughout. Besides, the GI50 was > 100 µM (inactive) in the test on NCI-H460; > 100 µM (inactive) in the test on Malme-3M; > 100 µM (inactive) with UACC-62; > 100 µM (inactive) with SK-OV-3; > 100 µM (inactive) in the test on RXF 393; > 100 µM in the test on HCT-15. In addition, the GI50 with A498, in the test with HOP-62, in the test with KM12, in the test on SNB-75, in the test on TK-10 and in the test on A549 was > 100 µM (inactive) each time.

`O=C(CSc1nnc(-c2ccc(/N=C\c3ccc(Cl)cc3)cc2)o1)Nc1cccc(Cl)c1`: the GI50 in the test on NCI-H23, with UACC-257, with ACHN, in the test on SR, in the test on LOX IMVI and in the test on NCI-H460 was > 100 µM (inactive) throughout. Besides, the GI50 in the test on Malme-3M is > 100 µM (inactive); in the test with UACC-62, > 100 µM (inactive); with SK-OV-3 it was > 100 µM (inactive); in the test with RXF 393, 80.5 µM (inactive); with HCT-15, > 100 µM; with HOP-62, > 100 µM (inactive). Also, the GI50 with KM12, in the test with SNB-75, with TK-10 and in the test on A549 was > 100 µM (inactive) each time.

As for `COc1cc(/C=N/N=C(\N)NO)c([N+](=O)[O-])cc1OC`, the GI50 in the test with NCI-H23 was 32.4 µM (inactive); in the test on UACC-257, 73.1 µM (inactive); in the test with ACHN, 14.8 µM (inactive); in the test on SR it was 29.2 µM (inactive); in the test with LOX IMVI, 24.2 µM (inactive); in the test with OVCAR-5 it was 37.2 µM (inactive). Also, the GI50 in the test on NCI-H460 is 12.6 µM (inactive); in the test with Malme-3M it was 59.3 µM (inactive); with UACC-62, 20.6 µM (inactive); in the test on SK-OV-3, 23.3 µM (inactive); in the test with RXF 393 it was 33.7 µM (inactive); in the test on HCT-15, 22.7 µM. In addition, the GI50 is 37.7 µM (inactive) with A498; 52.7 µM (inactive) in the test with HOP-62; 44.4 µM (inactive) in the test on KM12; 27.5 µM (inactive) with SNB-75; 69.3 µM (inactive) in the test with TK-10; 26.3 µM (inactive) with A549.

Turning to `CC(=O)Nc1ccc(C2CC(c3ccc([N+](=O)[O-])cc3)=Nc3ccccc3S2)cc1` (configuration not stated), the GI50 with NCI-H23 was > 10 µM (inactive); in the test on UACC-257, 15.7 µM (inactive); with ACHN, 16.6 µM (inactive); in the test on SR it was 12.9 µM (inactive); with LOX IMVI it was 15.5 µM (inactive); in the test on OVCAR-5, 22.2 µM (inactive). The GI50 in the test with NCI-H460 was 17.3 µM (inactive); in the test on Malme-3M, 18.3 µM (inactive); with UACC-62, 15.2 µM (inactive); in the test on SK-OV-3 it was 40.6 µM (inactive); with RXF 393, 19.3 µM (inactive); in the test with HCT-15 it was 17.1 µM. In addition, the GI50 in the test on A498 was 16.5 µM (inactive); in the test on HOP-62, 17.1 µM (inactive); in the test with KM12 it was 13.9 µM (inactive); with SNB-75, 12.8 µM (inactive); in the test with TK-10, 23.9 µM (inactive); with A549 it was 20.6 µM (inactive).

On to `O=[N+]([O-])c1cc(Cl)ccc1OCc1ccccc1`, for which the GI50 is 32.1 µM (inactive) with NCI-H23; 45.3 µM (inactive) in the test with UACC-257; 51.4 µM (inactive) in the test on ACHN; 26.4 µM (inactive) in the test on SR; 40.8 µM (inactive) in the test with LOX IMVI; 55.8 µM (inactive) in the test with NCI-H460. The GI50 in the test on Malme-3M is 99.3 µM (inactive); in the test on UACC-62, > 100 µM (inactive); in the test on SK-OV-3, > 100 µM (inactive); in the test with RXF 393, 47.3 µM (inactive); in the test with HCT-15 it was 67 µM; with A498 it was > 100 µM (inactive). For the same compound, the GI50 is 52 µM (inactive) in the test on HOP-62; > 100 µM (inactive) in the test on KM12; 20.6 µM (inactive) in the test on SNB-75; > 100 µM (inactive) in the test with TK-10; 26.2 µM (inactive) with A549.

For `O=C(O)C(=O)/C=C\c1ccc(Cl)cc1`, the GI50 with NCI-H23 was > 100 µM (inactive); in the test on UACC-257, > 100 µM (inactive); in the test on ACHN, > 100 µM (inactive); with SR, 51.6 µM (inactive); with LOX IMVI, > 100 µM (inactive); in the test on OVCAR-5 it was > 100 µM (inactive). Moreover, the GI50 in the test on NCI-H460 was > 100 µM (inactive); in the test with Malme-3M, > 100 µM (inactive); with UACC-62, > 100 µM (inactive); with SK-OV-3 it was > 100 µM (inactive); with RXF 393 it was > 100 µM (inactive); with HCT-15 it was > 100 µM. The GI50 in the test with A498, in the test with HOP-62, in the test with KM12, in the test with SNB-75, in the test with TK-10 and in the test on A549 was > 100 µM (inactive) throughout.

On to `COC(=O)C1(C(=O)OC)CC2c3c(c4ccccc4n3C)CC(C1=O)N2Cc1ccccc1` (configuration not stated), for which the GI50 with NCI-H23, with UACC-257, in the test on ACHN, in the test with LOX IMVI, in the test on OVCAR-5 and with NCI-H460 was > 100 µM (inactive) in each case. The GI50 in the test on Malme-3M was > 100 µM (inactive); with UACC-62, 89.9 µM (inactive); in the test with SK-OV-3, > 100 µM (inactive); with RXF 393, 29.8 µM (inactive); in the test with HCT-15, > 100 µM; in the test with A498 it was > 100 µM (inactive). The GI50 in the test with HOP-62 was > 100 µM (inactive); in the test on KM12 it was > 100 µM (inactive); in the test on SNB-75, 15.4 µM (inactive); with TK-10, > 100 µM (inactive); with A549 it was > 100 µM (inactive).

As for `S=C(Nc1ccccc1)N(/N=C/C=C/c1ccccc1)c1nnc(-c2ccccc2)c(-c2ccccc2)n1`, the GI50 was 19.6 µM (inactive) in the test on NCI-H23; 38.9 µM (inactive) in the test with UACC-257; 60.4 µM (inactive) with ACHN; 52.1 µM (inactive) with LOX IMVI; > 100 µM (inactive) in the test on OVCAR-5; 67.5 µM (inactive) in the test on NCI-H460. For the same compound, the GI50 with Malme-3M was 57.7 µM (inactive); in the test on UACC-62, 52.4 µM (inactive); in the test on SK-OV-3, > 100 µM (inactive); in the test with RXF 393, 50.9 µM (inactive); in the test on HCT-15, 82.2 µM; in the test on A498, 67.5 µM (inactive). Also, the GI50 is 78.2 µM (inactive) in the test on HOP-62; 82.4 µM (inactive) in the test on KM12; > 100 µM (inactive) in the test on SNB-75; 95.3 µM (inactive) in the test on TK-10; 38.6 µM (inactive) in the test with A549.

Take `O=c1c2cc(-c3ccccc3)sc2nc2sc(-c3ccccc3)nn12`: the GI50 in the test on NCI-H23, in the test on UACC-257, with SR, in the test on LOX IMVI, in the test with OVCAR-5 and in the test with NCI-H460 was > 100 µM (inactive) each time. Further, the GI50 is > 100 µM (inactive) in the test with Malme-3M; > 100 µM (inactive) with UACC-62; > 100 µM (inactive) with SK-OV-3; > 100 µM (inactive) with RXF 393; > 100 µM with HCT-15; > 100 µM (inactive) in the test on A498. The GI50 with HOP-62 was 85.3 µM (inactive); with KM12, > 100 µM (inactive); with SNB-75 it was > 100 µM (inactive); in the test on TK-10 it was > 100 µM (inactive); in the test with A549, > 100 µM (inactive).

For `Cc1ccc(NC(=O)CC(=O)n2nc(C)c(/N=N/c3ccccc3C(=O)O)c2C)cc1`, the GI50 in the test with NCI-H23, in the test on UACC-257, in the test with LOX IMVI, in the test with OVCAR-5, in the test with NCI-H460 and with Malme-3M was > 100 µM (inactive) in each case. Moreover, the GI50 in the test with UACC-62 is > 100 µM (inactive); in the test with SK-OV-3, > 100 µM (inactive); in the test with HCT-15 it was > 100 µM; in the test on A498, > 100 µM (inactive); in the test with HOP-62, > 100 µM (inactive); in the test with KM12 it was > 100 µM (inactive). The GI50 in the test on SNB-75 was 89.1 µM (inactive); in the test with TK-10 it was > 100 µM (inactive); in the test on A549, > 100 µM (inactive).

Regarding `Cn1nc(-c2ccccc2)c(C(=O)/C=C/c2ccccc2)c(N2CCOCC2)c1=O`, the GI50 was 16.4 µM (inactive) in the test with NCI-H23; 20 µM (inactive) in the test with ACHN; 21.6 µM (inactive) in the test with LOX IMVI; 22.9 µM (inactive) in the test on NCI-H460; 19.8 µM (inactive) with UACC-62; 27.6 µM (inactive) with SK-OV-3. In addition, the GI50 in the test on RXF 393 was 12.6 µM (inactive); in the test on HCT-15, 16.7 µM; in the test with A498, 15.4 µM (inactive); with HOP-62, 37.2 µM (inactive); in the test with TK-10, 32.8 µM (inactive); in the test on A549, 20.3 µM (inactive).

As for `Cc1ccccc1N1C(=O)/C(=C/c2ccc(N(CCC#N)CCC#N)cc2)N=C1c1cc([N+](=O)[O-])ccc1Cl`, the GI50 with NCI-H23 is > 100 µM (inactive); with UACC-257, > 100 µM (inactive); in the test on ACHN, > 100 µM (inactive); in the test on SR, 7.19 µM (inactive); in the test on OVCAR-5, 42.1 µM (inactive); in the test on NCI-H460, > 100 µM (inactive). The GI50 with Malme-3M was > 100 µM (inactive); with UACC-62, 22.5 µM (inactive); in the test on SK-OV-3, > 100 µM (inactive); in the test with HCT-15, > 100 µM; with A498, > 100 µM (inactive); with HOP-62, 25.6 µM (inactive). The GI50 in the test on KM12 and in the test with SNB-75 was > 100 µM (inactive) throughout.

Source of the values: ChEMBL document CHEMBL1201862, “PubChem BioAssay data set” (2004).
